A short description of series [1]: Solubility of delivery agent compound. Format: physicochemical. The settings on record: 350 µl 2N NaOH + 650 µl water, aqueous buffer, thermodynamic from solid; 200 mg+350 μl 2N NaOH+650 μl H2O, pH=7.67. How it is done:
The reaction mixture was warmed to 25° C. and stirred for 64 hours. The volatiles were removed in vacuo. The residue was stirred in 2N aqueous sodium hydroxide for one hour and acidified with 2M aqueous sulfuric acid. The solid was recrystallized twice from ethanol/water to give a tan solid. Isolation by filtration afforded 53.05 g of (52% yield) of 2-(4-(N-salicyloyl) aminophenyl) propionic acid. Solubility: 200 mg/mL (200 mg+350 μl 2N NaOH+650 μl H2O, pH=7.67). Anal. Calculated: C=67.36, H=5.3, N=4.91. Found: C=67.05, H=5.25, N=4.72.
A solution of 53.05 g (0.186 mol) of 2-(4-(N-salicyloyl)aminophenyl) propionic acid and 300 mL of ethanol was treated with 7.59 g (0.190 mol) of NaOH dissolved in 22 mL of water. The reaction mixture was stirred for 30 minutes at 25° C. and for 30 minutes at 0° C. The resulting pale yellow solid was isolated by filtration to give 52.61 g of sodium 2-(4-(N-salicyloyl) aminophenyl) propionate. Solubility: 200 mg/mL clear solution, pH=6.85. Anal. Calculated: C=60.45, H=5.45, N=3.92, Na=6.43. Found: C=60.84, H=5.87, N=3.85, Na=6.43. Melting point 236-238° C.

Several values for one entry are separate records, joined by “and”; a condition that tells them apart may be missing. Equal entries are not always repeated.

Consider `CC(C(=O)[O-])c1ccc(NC(=O)c2ccccc2O)cc1.[Na+]` (stereo not drawn) [Compound 4 Sodium Salt, Sodium 2-(4-(N-salicyloyl)aminophenyl)propionate], for which the melting point fell in the range of 236 to 238 °C.

As to `O=C(O)CCCCCCCOc1ccccc1O` [Compound 7, 8-(2-Hydroxyphenoxy)octanoic acid], the melting point is 65 to 68 °C and 60 to 64 °C.

Consider `CC(C(=O)O)c1ccc(NC(=O)c2ccccc2O)cc1` (stereo not drawn) [Compound 4, 2-(4-(N-salicyloyl)aminophenyl)propionic acid], for which the solubility in series [1] turned out to be 200 mg/mL.
